In patent US12324802B2, “Modulators of cystic fibrosis transmembrane conductance regulator” (Vertex Pharmaceuticals Incorporated, priority 2020, dated 2025):
Where two headings read alike, the source gives them in different places.

Settings: rcm bond, DCE

CC(C)(C)OC(=O)Nc1cc(C(F)(F)F)c2nc1-c1nnc(o1)C(OCc1ccccc1)(C(F)(F)F)CCC=CC[C@@H]1CCCN21 (mixture of isomers)
ring closure, isolated yield (from C=CCCC(OCc1ccccc1)(c1nnc(-c2nc(N3CCC[C@H]3CC=C)c(C(F)(F)F)cc2NC(=O)OC(C)(C)C)o1)C(F)(F)F, 14-membered ring, Zhan-1B (two charges), 7.07 mM, 70.0 °C, 20.0 h): 61%

CC(C)(C)OC(=O)Nc1cc(C(F)(F)F)c2nc1-c1nnc(o1)C(OCc1ccccc1)CCC=CC[C@@H]1CCCN21 (mixture of isomers)
ring closure, isolated yield (from C=CCCC(OCc1ccccc1)c1nnc(-c2nc(N3CCC[C@H]3CC=C)c(C(F)(F)F)cc2NC(=O)OC(C)(C)C)o1, 14-membered ring, Zhan-1B (15 mol%), 6.77 mM, 70.0 °C, 20.0 h): 6%

CC(C)(C)OC(=O)Nc1cc(C(F)(F)F)c2nc1-c1nnc(o1)[C@@](OCc1ccccc1)(C(F)(F)F)CCC=CCC(C(=O)N1CCCC1)N2 (mixture of isomers)
ring closure, isolated yield (from C=CCC[C@@](OCc1ccccc1)(c1nnc(-c2nc(NC(CC=C)C(=O)N3CCCC3)c(C(F)(F)F)cc2NC(=O)OC(C)(C)C)o1)C(F)(F)F, 14-membered ring, Zhan catalyst-1B, 1.4 mM, 75.0 °C, 2.0 h): 66%

CC(C)N1CCC=CCCC(OCc2ccccc2)(C(F)(F)F)C2=NN=C(O2)c2nc1c(C(F)(F)F)cc2[N+](=O)[O-] (mixture of isomers)
ring closure, isolated yield (from C=CCCN(c1nc(-c2nnc(C(CCC=C)(OCc3ccccc3)C(F)(F)F)o2)c([N+](=O)[O-])cc1C(F)(F)F)C(C)C, 14-membered ring, Zhan-1B, 2.53 mM, 75.0 °C, 3.0 h): 84%

CC1(COCc2ccccc2)CC=CCC[C@](OCc2ccccc2)(C(F)(F)F)C2=NN=C(O2)c2nc(c(C(F)(F)F)cc2[N+](=O)[O-])N1 (mixture of isomers)
ring closure, isolated yield (from C=CCC[C@@](OCc1ccccc1)(c1nnc(-c2nc(NC(C)(CC=C)COCc3ccccc3)c(C(F)(F)F)cc2[N+](=O)[O-])o1)C(F)(F)F, 14-membered ring, Zhan catalyst-1B, 2.83 mM, 60.0 °C, 3.17 h): 75%

CC1CC=CCCC(OCc2ccccc2)(C(F)(F)F)C2=NN=C(O2)c2nc(c(C(F)(F)F)cc2[N+](=O)[O-])N1 (mixture of isomers)
ring closure, isolated yield (from C=CCCC(OCc1ccccc1)(c1nnc(-c2nc(NC(C)CC=C)c(C(F)(F)F)cc2[N+](=O)[O-])o1)C(F)(F)F, 14-membered ring, Zhan-1B, 1.85 mM, 75.0 °C, 3.0 h): 61%

CCOC(=O)C1CC=CCCC(OCc2ccccc2)(C(F)(F)F)C2=NN=C(O2)c2nc(c(C(F)(F)F)cc2[N+](=O)[O-])N1 (mixture of isomers)
ring closure, isolated yield (from C=CCCC(OCc1ccccc1)(c1nnc(-c2nc(NC(CC=C)C(=O)OCC)c(C(F)(F)F)cc2[N+](=O)[O-])o1)C(F)(F)F, 14-membered ring, Zhan catalyst-1B, 3.41 mM, 75.0 °C, 2.0 h): 36%

CCOC(=O)CN1CCC=CCCC(OCc2ccccc2)(C(F)(F)F)C2=NN=C(O2)c2nc1c(C(F)(F)F)cc2N(C(=O)OC(C)(C)C)C(=O)OC(C)(C)C (mixture of isomers)
ring closure, isolated yield (from C=CCCN(CC(=O)OCC)c1nc(-c2nnc(C(CCC=C)(OCc3ccccc3)C(F)(F)F)o2)c(N(C(=O)OC(C)(C)C)C(=O)OC(C)(C)C)cc1C(F)(F)F, 14-membered ring, Zhan-1B, 2.3 mM, 75.0 °C, 2.0 h): 92%

CN1CCC=CCCC(OCc2ccccc2)(C(F)(F)F)C2=NN=C(O2)c2nc1c(C(F)(F)F)cc2NC(=O)OC(C)(C)C (mixture of isomers)
ring closure, isolated yield (from C=CCCN(C)c1nc(-c2nnc(C(CCC=C)(OCc3ccccc3)C(F)(F)F)o2)c(NC(=O)OC(C)(C)C)cc1C(F)(F)F, 14-membered ring, Zhan-1B (15 mol%), 6.34 mM, 70.0 °C, 2.0 h): 76%

CN1CCC=CCCC(OCc2ccccc2)(C(F)(F)F)C2=NN=C(O2)c2nc1c(S(C)(=O)=O)cc2NC(=O)OC(C)(C)C (mixture of isomers)
ring closure, isolated yield (from C=CCCN(C)c1nc(-c2nnc(C(CCC=C)(OCc3ccccc3)C(F)(F)F)o2)c(NC(=O)OC(C)(C)C)cc1S(C)(=O)=O, 14-membered ring, Zhan-1B (two charges), 4.01 mM, 70.0 °C, 14.0 h): 41%

COCCN1CCC=CCCC(OCc2ccccc2)(C(F)(F)F)C2=NN=C(O2)c2nc1c(C(F)(F)F)cc2NC(=O)OC(C)(C)C (mixture of isomers)
ring closure, isolated yield (from C=CCCN(CCOC)c1nc(-c2nnc(C(CCC=C)(OCc3ccccc3)C(F)(F)F)o2)c(NC(=O)OC(C)(C)C)cc1C(F)(F)F, 14-membered ring, Zhan-1B (19 mol%), 3.22 mM, 70.0 °C, 3.0 h): 60%

COc1cc2nc(c1[N+](=O)[O-])-c1nnc(o1)C(OCc1ccccc1)(C(F)(F)F)CCC=CC[C@@H]1CCCN21 (mixture of isomers)
ring closure, isolated yield (from C=CCCC(OCc1ccccc1)(c1nnc(-c2nc(N3CCC[C@H]3CC=C)cc(OC)c2[N+](=O)[O-])o1)C(F)(F)F, 14-membered ring, Zhan catalyst-1B, 6.85 mM, 70.0 °C, 5.0 h): 29%

O=C1NNC(=O)[C@@](OCc2ccccc2)(C(F)(F)F)CCC=CCC2(CCCCC2)Nc2nc1c([N+](=O)[O-])cc2C(F)(F)F (mixture of isomers)
ring closure, isolated yield (from C=CCC[C@@](OCc1ccccc1)(C(=O)NNC(=O)c1nc(NC2(CC=C)CCCCC2)c(C(F)(F)F)cc1[N+](=O)[O-])C(F)(F)F, 15-membered ring, Zhan catalyst-1B, 4.99 mM, 60.0 °C, 2.0 h): 70%

O=[N+]([O-])c1cc(C(F)(F)F)c2nc1-c1nnc(o1)C(OCc1ccccc1)(C(F)(F)F)CCC=CCCN2CCOCc1ccccc1 (mixture of isomers)
ring closure, isolated yield (from C=CCCN(CCOCc1ccccc1)c1nc(-c2nnc(C(CCC=C)(OCc3ccccc3)C(F)(F)F)o2)c([N+](=O)[O-])cc1C(F)(F)F, 14-membered ring, Zhan-1B (25 mol%), 2.75 mM, 75.0 °C, 2.0 h): 59%

O=[N+]([O-])c1cc(C(F)(F)F)c2nc1-c1nnc(o1)C(OCc1ccccc1)(C(F)(F)F)CCC=CCCN2Cc1ccccc1 (mixture of isomers)
ring closure, isolated yield (from C=CCCN(Cc1ccccc1)c1nc(-c2nnc(C(CCC=C)(OCc3ccccc3)C(F)(F)F)o2)c([N+](=O)[O-])cc1C(F)(F)F, 14-membered ring, Zhan-1B, 1.77 mM, 75.0 °C, 3.0 h): 68%

O=[N+]([O-])c1cc(C(F)(F)F)c2nc1-c1nnc(o1)C(OCc1ccccc1)(C(F)(F)F)CCC=CC[C@@H]1COCCN21 (mixture of isomers)
ring closure, isolated yield (from C=CCCC(OCc1ccccc1)(c1nnc(-c2nc(N3CCOC[C@H]3CC=C)c(C(F)(F)F)cc2[N+](=O)[O-])o1)C(F)(F)F, 14-membered ring, Zhan-1B, 15.9 mM, 70.0 °C, 3.5 h): 56%

O=[N+]([O-])c1cc(C(F)(F)F)c2nc1-c1nnc(o1)[C@@](OCc1ccccc1)(C(F)(F)F)CCC=CCC1(CCC1)N2 (mixture of isomers)
ring closure, isolated yield (from C=CCC[C@@](OCc1ccccc1)(c1nnc(-c2nc(NC3(CC=C)CCC3)c(C(F)(F)F)cc2[N+](=O)[O-])o1)C(F)(F)F, 14-membered ring, Zhan catalyst-1B, 3.27 mM, 85.0 °C, 5.0 h): 68%

O=[N+]([O-])c1cc(C(F)(F)F)c2nc1-c1nnc(o1)[C@@](OCc1ccccc1)(C(F)(F)F)CCC=CCC1(CCCC1)N2 (mixture of isomers)
ring closure, isolated yield (from C=CCC[C@@](OCc1ccccc1)(c1nnc(-c2nc(NC3(CC=C)CCCC3)c(C(F)(F)F)cc2[N+](=O)[O-])o1)C(F)(F)F, 14-membered ring, Zhan catalyst-1B, 6.3 mM, 70.0 °C, 2.5 h): 27%

O=[N+]([O-])c1cc(C(F)(F)F)c2nc1-c1nnc(o1)[C@@](OCc1ccccc1)(C(F)(F)F)CCC=CCC1(CCOC1)N2 (mixture of isomers)
ring closure, isolated yield (from C=CCC[C@@](OCc1ccccc1)(c1nnc(-c2nc(NC3(CC=C)CCOC3)c(C(F)(F)F)cc2[N+](=O)[O-])o1)C(F)(F)F, 14-membered ring, Zhan catalyst-1B, 3.17 mM, 60.0 °C, 3.75 h): 82%

O=[N+]([O-])c1cc(C(F)(F)F)c2nc1-c1nnc(o1)[C@@](OCc1ccccc1)(C(F)(F)F)CCC=CCC1(CCOCC1)N2 (mixture of isomers)
ring closure, isolated yield (from C=CCC[C@@](OCc1ccccc1)(c1nnc(-c2nc(NC3(CC=C)CCOCC3)c(C(F)(F)F)cc2[N+](=O)[O-])o1)C(F)(F)F, 14-membered ring, Zhan catalyst-1B, 3.13 mM, 60.0 °C, 3.75 h): 80%
